Earlier results on one molecule are cited in patent US6852335B2, “Folic acid in solid dosage forms” (Shaklee Corporation, priority 1999, dated 2005).

For this series the following is noted: 25° C. (The Merck Index, 12th edition).

Regarding `Nc1nc2ncc(CNc3ccc(C(=O)N[C@@H](CCC(=O)O)C(=O)O)cc3)nc2c(=O)[nH]1` [Folic acid], the solubility in water entry is “approximately 1.6 mcg/ml”.
